Seven compounds from patent US8247569B2, “Cyclohexane derivative and pharmaceutical use thereof” (Toray Industries, Inc., priority 2008, dated 2012) can be followed below.

Data set [1] concerns mouse acetic acid writhing model. Briefly: mouse acetic acid writhing model (nociceptive pain). As to conditions: male ddY mice, oral administration 45 min before 0.6% acetic acid i.p., dose suppressing 50% of writhing responses vs vehicle group, vehicle A or B. In kind it is in vivo. (An intraperitoneal irritant provokes the stretching counted in writhing tests.)
Data set [2] in a line: human liver microsomal stability assay. In kind it is in vitro ADME. As to conditions: liver microsomes, pH 7.4, human liver microsomes 0.5 mg/mL, test compound 2 μmol/L, 37° C., 0-30 min. Here is the method:
(§1) A liver microsomal stability assay, which is known to be an in vitro assay for evaluation of the stability of a compound against hepatic metabolism, was carried out to evaluate the stability of Compound (I) against human and mouse hepatic metabolism.
(§2) A total of 4 times of experiments were carried out for the combinations of the compound of Example 2-B or the compound of Comparative Example 29 as the test compound and human liver microsomes (Xenotech) or mouse liver microsomes (Xenotech) as the liver microsomes.
The respective reagents to be used for the liver microsomal stability assay were prepared as follows. That is, an appropriate amount of D-glucose 6-phosphate disodium salt (hereinafter referred to as G6P) was dissolved in distilled water at 100 mmol/L, to prepare 100 mmol/L aqueous G6P solution. In 5 mL of distilled water, 1000 units of Glucose 6-phosphate dehydrogenase from Yeast (hereinafter referred to as G6PDH) was dissolved, to prepare 200 units/mL aqueous G6PDH solution. An appropriate amount of MgCl2 was dissolved in distilled water at 100 mmol/L, to prepare 100 mmol/L aqueous MgCl2 solution. To 500 mL of 200 mmol/L aqueous K2HPO4 solution, 200 mmol/L aqueous KH2PO4 solution (about 130 mL) was added, and pH was adjusted to 7.4, to prepare 200 mmol/L KH2PO4/K2HPO4 buffer pH7.4 (hereinafter referred to as 200 mmol/L PB). β-nicotinamide-adenine dinucleotide phosphate, reduced form, tetrasodium salt (hereinafter referred to as (NADPH) was dissolved in distilled water such that the NADPH content becomes 10 mmol/L based on the purity (Purity NADPH) in the assay data described in the attached document, to prepare 10 mmol/L aqueous NADPH solution.
The liver microsomal stability assay was carried out according to the following procedure. First, the reagents listed in Table 12 (excluding microsomes) were mixed together to prepare a reaction mixture, and the reaction mixture was aliquoted in 130 μL volumes to 4 wells (which play roles as the wells for the 0-minute reaction, well for the 30-minute reaction, well for the 20-minute reaction and well for the 10-minute reaction, respectively) in a 96-well tube plate (BM Equipment Co., Ltd; hereinafter referred to as plate). The entire plate was covered with a silicone cap, and the plate was subjected to preincubation by being soaked in a water bath at 37° C. for 10 minutes.
After the preincubation, 3.75 μL of 20 mg/mL microsome suspension+16.25 μL of distilled water (20 μL in total) were added to the well for the 30-minute reaction, and the plate was covered with the cap, followed by soaking the plate in a water bath at 37° C. to initiate the reaction.
Ten minutes after the beginning of the reaction, 3.75 μL of 20 mg/mL microsome suspension+16.25 μL of distilled water (20 μL in total) were added to the well for the 20-minute reaction, and 20 minutes after the beginning of the reaction, 3.75 μL of 20 mg/mL microsome suspension+16.25 μL of distilled water (20 μL in total) were added to the well for the 10-minute reaction. The reaction was further continued by keeping the plate soaked in the water bath at 37° C.
Thirty minutes after the beginning of the reaction, the plate was removed from the water bath, and 120 μL of acetonitrile was added to each well, followed by covering the plate with the cap, stirring the plate for 10 seconds with Direct Mixer, and stopping the reaction by 10 minutes of ice cooling. After the reaction was stopped, 3.75 μL of 20 mg/mL microsome suspension+16.25 μL of distilled water (20 μL in total) were added to the well for the 0-minute reaction.
The reaction liquid in each well was centrifuged at 4° C. at 2500 rpm for 10 minutes, and the supernatant was transferred to a glass-coated microplate (TOMSIC Plate+) to begin LC/MS/MS analysis. The conditions for the LC/MS/MS analysis were as follows: […]

Data set [3] has as its system mouse sciatic nerve-ligation model (Seltzer model). Briefly: mouse partial sciatic nerve ligation model (Seltzer model), von Frey test. As to conditions: for von Frey total score compared to the vehicle group: 1 hour after oral administration, doses as in Table 11; for Score improvement rate: 1 hour after administration; for von Frey Total Score Observed 1 Hour after Oral Administration (mean ± standard error), Compound-administered group: n = 5 to 6.

The nature of data set [4]: mouse liver microsomal stability assay. As to conditions: pH 7.4; mouse liver microsomes 0.5 mg/mL; test compound 2 μmol/L; 37° C., 0-30 min; read-out: Hepatic intrinsic clearance, Mouse. In kind it is in vitro ADME. Here is the method:
as §1, §2
The respective reagents to be used for the liver microsomal stability assay were prepared as follows. That is, an appropriate amount of D-glucose 6-phosphate disodium salt (hereinafter referred to as G6P) was dissolved in distilled water at 100 mmol/L, to prepare 100 mmol/L aqueous G6P solution. In 5 mL of distilled water, 1000 units of Glucose 6-phosphate dehydrogenase from Yeast (hereinafter referred to as G6PDH) was dissolved, to prepare 200 units/mL aqueous G6PDH solution. An appropriate amount of MgCl2 was dissolved in distilled water at 100 mmol/L, to prepare 100 mmol/L aqueous MgCl2 solution. […]
A general note: Liver microsomes are vesicles of endoplasmic reticulum, rich in cytochrome P450 enzymes.

Data set [5] can be described thus: pharmacokinetics (PK) test in mice. As to conditions: mouse, plasma, female CD1 (ICR) mice, fasted; for clearance: intravenous, read-out: total body clearance (converted); for bioavailability: oral vs intravenous administration, from dose-normalized AUC0-24 hr, read-out: bioavailability (BA). Format: in vivo. Here is the method:
Example 2-B or Comparative Example 29 was orally administered to mice, and the plasma level after the administration was measured to study the influence of improvement of the metabolic stability in liver microsomes on the change in the plasma level of the compound.
Female CD1 (ICR) mice of 7 weeks old which had been fed ad libitum with pellets (Oriental Yeast Co., Ltd.) and tap water were fasted for 17 hours before the administration. Feeding to the mice was begun again 4 hours after the administration.
In the case of intravenous administration of the solution, the animal was fixed in a holder, and the administration was carried out from the tail vein without anesthesia, using a syringe with an injection needle (25 G) attached thereto. In the case of oral administration, a syringe with a feeding needle attached thereto was used without anesthesia to force the solution into the stomach.
In terms of the mice to which the solution was intravenously administered, blood was collected a total of 8 times from the jugular vein or heart 5, 15 and 30 minutes and 1, 2, 4, 8 and 24 hours after the intravenous administration. In terms of the mice to which the solution was orally administered, blood was collected a total of 8 times from the jugular vein or heart 15, 30 and 45 minutes and 1, 2, 4, 8 and 24 hours after the oral administration. Further, from the jugular vein or heart of mice to which the solution was not administered, blood was collected as a blank. The collected blood was centrifuged at 4° C. at 12000 rpm for 5 minutes, and the obtained mouse plasma and blank plasma were stored at about −20° C. until preparation of samples for analysis. […]
From the results of the LC/MS/MS analysis, a calibration curve was prepared using Analysis 1.4 (Applied Biosystems). Based on the LC/MS/MS analysis and the prepared calibration curve, the concentration in each measurement sample was calculated using Analysis 1.4. For 3 times each of the experiments by intravenous administration and oral administration, the mean plasma level at each time point was calculated, and PK analysis was carried out using the obtained values (FIG. 6 and FIG. 7; each plot indicates the mean plasma level at each time point and its ±standard deviation; i.v. indicates test data by intravenous administration; and p.o. indicates test data by oral administration). The PK parameter was calculated using WinNonlin (Pharsight) by analysis independent of the models (intravenous administration: Model 201, oral administration: Model 200). Further, the bioavailability (BA) was calculated by normalization by dividing AUC0-24 hr from the time point of the intravenous administration or oral administration to the time point of the final blood collection by the dose.

A short description of data set [6]: evaluation of safety using mice, 5-day repeated oral administration. In kind it is in vivo. The settings on record: for no-observed-adverse-effect-level: Crlj:CD1 (ICR) mice, repeated oral administration for 5 days, assumed value. The protocol:
Crlj:CD1 (ICR) mice of 7 weeks old were subjected to repeated oral administration of Example 2-B or Comparative Example 29 for 5 days, and observation of clinical sign, measurement of body weight, hematology, blood chemistry, gross autopsy, measurement of organ weight and histopathology were carried out. Further, on Day 1 and Day 5 after the administration, TK measurement was carried out. Exposure to the respective compounds was confirmed.
The doses of Example 2-B were 0, 40, 200 and 1000 mg/kg/day, and those of Comparative Example 29 were 0, 30, 100 and 300 mg/kg/day. The solution to be administered was prepared using 0.5% aqueous methyl cellulose solution as a vehicle, such that the administration volume becomes 10 mL/kg.

The mark [7] stands for this setting: read-out: Human hepatic intrinsic clearance.

The structures appear in SMILES notation. Where two headings read alike, the source gives them in different places.

As to `COc1ccc(-n2nc(C3(O)CCC(C(=O)O)CC3)cc2-c2ccc(C)cc2)cc1` (stereo not drawn) [Example 64, 4-hydroxy-4-(1-(4-methoxyphenyl)-5-p-tolyl-1H-pyrazol-3-yl)-cis-cyclohexanecarboxylic acid], the 50% effective dose (ED50) (usually the dose that gives a 50% effect, or the effect in half of the subjects) in data set [1] (Mus musculus, read-out: ED50) turned out to be 1.19 mg/kg. Moreover, in data set [2] (setting [7]), the microsomal CLint at 2 μmol/L amounted to 2.06 µL/min/mg. For the same compound, in data set [3], the “von Frey total score compared to the vehicle group” value was “significantly improved”. Also, the Score improvement rate in data set [3] (dose 1 mg/kg oral, vehicle C) was 57%. Further, in data set [3] (dose 1 mg/kg oral, vehicle C (0.5% methyl cellulose, suspension)), the “von Frey Total Score Observed 1 Hour after Oral Administration (mean ± standard error), Compound-administered group” value came out at 2.3 ± 0.5.
Take `COc1ccc(-n2nc(C3(O)CCN(C(=O)N(C)O)CC3)c(F)c2-c2ccc(C)cc2)cc1` [Comparative Example 29, 4-(4-Fluoro-1-(4-methoxyphenyl)-5-(4-tolyl)-1H-pyrazol-3-yl)-1-(N-hydroxy-N-methylcarbamoyl)-4-piperidinol, reference compound]: the microsomal CLint at 2 μmol/L in data set [4] worked out at 267 µL/min/mg. In addition, in data set [5], the clearance (commonly a measure of how efficiently the substance is removed, as volume per time) was 94.5 mL/min/kg and the bioavailability (as a rule, the share of a dose that reaches the circulation, judged against a reference dose that is usually intravenous) amounted to 54%. In data set [2] (read-out: Hepatic intrinsic clearance, Human), the microsomal CLint at 2 μmol/L is 110 µL/min/mg. The no-observed-adverse-effect-level result in data set [6] was “less than 30 mg/kg/day”. Moreover, in data set [3] (positive controls, gabapentin 30 mg/kg oral, dose of Comparative Example 29 not given), the “analgesic effect 3 hours after the oral administration (von Frey test)” value (“analgesic effect 3 hours” below) is “drastically decreased”. Also, the “time of strongest analgesic effect after oral administration (von Frey test)” value in data set [3] (positive controls, gabapentin 30 mg/kg oral, dose of Comparative Example 29 not given, FIGS. 1 to 4) was found to be 1 h.
In the case of `COc1ccc(-n2nc(C3(O)CCC(O)CC3)c(Cl)c2-c2ccc(C)cc2)cc1` (stereo not drawn) [Example 59, 1-(4-Chloro-1-(4-methoxyphenyl)-5-(p-tolyl)-1H-pyrazol-3-yl)cyclohexan-cis-1,4-diol], the ED50 in data set [1] (Mus musculus, read-out: ED50) stood at 9.92 mg/kg. In addition, the microsomal CLint at 2 μmol/L in data set [2] (setting [7]) is 44.6 µL/min/mg. In addition, the “von Frey total score compared to the vehicle group” value in data set [3] is given as “significantly improved”. The Score improvement rate in data set [3] (dose 10 mg/kg oral, vehicle A) stood at 66%. Also, in data set [3] (dose 10 mg/kg oral, […]), the “von Frey Total Score Observed 1 Hour after Oral Administration (mean ± standard error), Compound-administered group” value stood at 1.7 ± 0.6.
As to `COc1ccc(-n2nc(C3(O)CCC(O)(C(F)(F)F)CC3)cc2-c2ccc(C)cc2)cc1` (stereo not drawn) [Example 62, 1-(1-(4-Methoxyphenyl)-5-(p-tolyl)-1H-pyrazol-3-yl)-4-(trifluoromethyl)cyclohexan-cis-1,4-diol], in data set [1] (Mus musculus, read-out: ED50), the median effective dose (ED50) was 0.54 mg/kg. Also, the microsomal CLint at 2 μmol/L in data set [2] (setting [7]) was 33.3 µL/min/mg. The “analgesic effect 3 hours” value in data set [3] (oral administration of Example 2-B and Example 62 in amounts of 0.3 and 1.0 mg/kg, respectively, FIG. 2, FIG. 3) was “a strong analgesic effect was maintained”.
Compound `COc1ccc(-n2nc(C3(O)CCC(O)CC3)cc2-c2ccc(C)cc2)cc1` (stereo not drawn) [Example 2-B, 1-(1-(4-methoxyphenyl)-5-(p-tolyl)-1H-pyrazol-3-yl)cyclohexane-cis-1,4-diol] gave a median effective dose (ED50) in data set [1] of 1.40 mg/kg. In data set [5], the clearance was 16.2 mL/min/kg and the bioavailability is 88%. In data set [6], this compound registered a no-observed-adverse-effect-level of 200 mg/kg/day. Moreover, the toxicity findings entry in data set [6] (mouse, in vivo, po, 1000 mg/kg/day) was “possibilities of induction of hepatotoxicity, effects on immune organs/tissues and induction of gastrointestinal toxicity were suggested”.
For the compound `COc1ccc(-n2nc(C3(O)CCC(O)CC3)cc2-c2ccc(C)cc2)cc1` (stereo not drawn) [Example 2-A, 1-(1-(4-Methoxyphenyl)-5-(p-tolyl)-1H-pyrazol-3-yl)cyclohexan-trans-1,4-diol], in data set [1] (Mus musculus, read-out: ED50), the median effective dose (ED50) is 1.8 mg/kg. For the same compound, in data set [2] (setting [7]), the microsomal CLint at 2 μmol/L stood at 45.1 µL/min/mg. The “analgesic effect 3 hours” value in data set [3] (oral administration of 0.3 mg/kg, FIG. 1) is recorded as “a strong analgesic effect was maintained”.
With `COc1ccc(-c2nc(C3(O)CCC(O)CC3)oc2-c2ccc(OC)cc2)cc1` (single isomer, unassigned) [Example 67-B, 4-(4,5-Bis(4-methoxyphenyl)oxazol-2-yl)cyclohexan-cis-1,4-diol], the median effective dose (ED50) in data set [1] (Mus musculus, read-out: ED50) was 7.32 mg/kg. In data set [2] (setting [7]), the microsomal CLint at 2 μmol/L amounted to 12.7 µL/min/mg. The “von Frey total score compared to the vehicle group” value in data set [3] is recorded as “significantly improved”. In data set [3] (dose 10 mg/kg oral, […]), the “von Frey Total Score Observed 1 Hour after Oral Administration (mean ± standard error), Compound-administered group” value came to 0.8 ± 0.7.
